Holding throughout (experiment): NCI tumour cell line growth inhibition, 48 h
The subject of assay [1] is HCT-15.
Assay [2] has as its system RXF 393.
Assay [3] has as its system ACHN.
The subject of assay [4] is NCI/ADR-RES.
In assay [5] the test system is CAKI-1.
Assay [6] has as its system MDA-MB-231.
The subject of assay [7] is SF-295.
Assay [8] has as its system HT-29.
In assay [9] the test system is PC-3.
Assay [10] deals with SF-268.
Assay [11] relates to SK-MEL-5.
Assay [12] concerns HCC 2998.
Assay [13] has as its system HCT-116.
Assay [14] relates to NCI-H23.
Assay [15] concerns A498.
For assay [16], the system named is OVCAR-8.
The subject of assay [17] is KM12.
Assay [18] concerns IGROV-1.
Assay [19] relates to K562.
Assay [20] relates to SW-620.

This is an account of results in ChEMBL document CHEMBL1201862, “PubChem BioAssay data set” (2004).

Molecules are shown by their SMILES.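 Each compound was tested at five concentrations against cells in 96-well plates for 48 hours. GI50 marks 50% less growth.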 Calls of active or inactive are those of the source. Rule as the data show it: active = GI50 up to about 1.1 µM and inactive = higher.

Take `CSc1nnnc2ccccc12`: the GI50 is more than 100 µM in assay [1]; > 100 µM (inactive) in assay [2]; > 100 µM (inactive) in [3]; > 100 µM (inactive) in assay [4]; > 100 µM (inactive) in assay [5]; > 100 µM (inactive) in [6]. For the same compound, the GI50 in assay [7], in assay [8], in [9], in assay [10], in assay [11] and in assay [12] was > 100 µM (inactive) throughout. In addition, the GI50 in assay [13], in assay [14], in assay [15], in [16], in [17] and in [18] was > 100 µM (inactive) throughout. Besides, the GI50 in [19] and in [20] was > 100 µM (inactive) throughout.

Turning to `CC(=O)n1nc(-c2ccccc2)n(/N=C/c2ccc([N+](=O)[O-])cc2)c1=O`, the GI50 is more than 100 µM in [1]; 65.9 µM (inactive) in assay [2]; > 100 µM (inactive) in [3]; > 100 µM (inactive) in [4]; > 100 µM (inactive) in assay [5]; 35 µM (inactive) in assay [6]. The GI50 is > 100 µM (inactive) in [7]; > 100 µM (inactive) in [8]; > 100 µM (inactive) in assay [9]; 43.5 µM (inactive) in [10]; > 100 µM (inactive) in [11]; > 100 µM (inactive) in [12]. The GI50 was > 100 µM (inactive) in assay [13]; > 100 µM (inactive) in assay [14]; > 100 µM (inactive) in [15]; 98.2 µM (inactive) in assay [16]; > 100 µM (inactive) in assay [17]; > 100 µM (inactive) in [18]. Further, the GI50 in [19] and in [20] was > 100 µM (inactive) in each case.

On to `CCOP(=O)(OCC)C(Nc1cccc(F)c1)c1ccccc1` (stereo not given), for which the GI50 in [1] is 44.4 µM; in assay [2], 25.2 µM (inactive); in assay [3], 58.7 µM (inactive); in [4], 34.5 µM (inactive); in [5], > 100 µM (inactive); in assay [6], 75.5 µM (inactive). Besides, the GI50 in assay [7] is 54.7 µM (inactive); in assay [8] it was 58.1 µM (inactive); in assay [9], 50.2 µM (inactive); in assay [10] it was 59 µM (inactive); in assay [11] it was 42.2 µM (inactive); in [12], 66.1 µM (inactive). Moreover, the GI50 in assay [13] was 44.1 µM (inactive); in assay [14] it was > 100 µM (inactive); in [15] it was > 100 µM (inactive); in assay [16], 62.2 µM (inactive); in [17] it was 67 µM (inactive); in [18], > 100 µM (inactive). The results for the GI50 in assay [19] and in assay [20] were 34.8 µM (inactive) and > 10 µM (inactive), respectively.

As to `Cc1ccc(S(=O)(=O)NCCN(CCNS(=O)(=O)c2ccc(C)cc2)S(=O)(=O)c2ccc(C)cc2)cc1`, the GI50 is more than 100 µM in assay [1]; 87.9 µM (inactive) in assay [2]; 60 µM (inactive) in assay [3]; > 100 µM (inactive) in assay [4]; > 100 µM (inactive) in [5]; > 100 µM (inactive) in assay [6]. The GI50 in assay [7] was > 100 µM (inactive); in assay [8], > 100 µM (inactive); in assay [9] it was > 100 µM (inactive); in [10], 47.4 µM (inactive); in assay [11], 43.9 µM (inactive); in [12], > 100 µM (inactive). The GI50 was > 100 µM (inactive) in assay [13]; > 100 µM (inactive) in [14]; > 100 µM (inactive) in assay [15]; 94.6 µM (inactive) in assay [16]; > 100 µM (inactive) in assay [17]; 84.1 µM (inactive) in assay [18]. The GI50 in assay [19] and in assay [20] was > 100 µM (inactive) in each case.
